Source: patent US20230391761A1, “S[…]-ALANINATE DERIVATIVES” (BAYER AKTIENGESELLSCHAFT, priority 2021, published 2023)

Assay: Solubility in Citrate Buffer pH 4
Conditions: 25 °C, pH 4, aqueous buffer, thermodynamic from solid
Protocol: 25 mg compound are placed in 2 ml solvent. […] Thereafter, the solution or suspension is filtered and the remaining solution is analyzed via HPLC. The solubility is determined by comparison of the total area of the substance peak to a calibration curve (external standard).
Thereafter, the solution was centrifuged and analyzed via HPLC. The solubility was determined by comparison of the total area of the substance peak to a calibration curve (external standard). The measurements were conducted in triplicates.

In the case of `CCc1c(N2CC[C@H](O)C2=O)cccc1S(=O)(=O)N[C@@H](CNC(=O)c1ccc(Cl)s1)C(=O)OCCc1nccn1C.Cl` [Example 2, 2-(1-Methyl-1H-imidazol-2-yl)ethyl 3-[(5-chlorothiophene-2-carbonyl)amino]-N-{2-ethyl-3-[(3S)-3-hydroxy-2-oxopyrrolidin-1-yl]benzene-1-sulfonyl}-S-alaninate hydrochloride], the solubility at 24 h is reported as > 500 mg/mL.
